Paper doi:10.1101/307710v1, “Assignment of the resting state of the secondary active transporter BetP by integrating spectroscopic measurements and molecular simulations” (biorxiv, 2018)

Biological target: T1, BetP (Corynebacterium glutamicum, UniProt P54582)
T1 construct: plasmid pASK-IBA5betP, Strep-Tactin purified from E. coli DH5alpha-T1, reconstituted in E. coli polar lipid liposomes; homotrimer
T1 sequence (P54582 1-595): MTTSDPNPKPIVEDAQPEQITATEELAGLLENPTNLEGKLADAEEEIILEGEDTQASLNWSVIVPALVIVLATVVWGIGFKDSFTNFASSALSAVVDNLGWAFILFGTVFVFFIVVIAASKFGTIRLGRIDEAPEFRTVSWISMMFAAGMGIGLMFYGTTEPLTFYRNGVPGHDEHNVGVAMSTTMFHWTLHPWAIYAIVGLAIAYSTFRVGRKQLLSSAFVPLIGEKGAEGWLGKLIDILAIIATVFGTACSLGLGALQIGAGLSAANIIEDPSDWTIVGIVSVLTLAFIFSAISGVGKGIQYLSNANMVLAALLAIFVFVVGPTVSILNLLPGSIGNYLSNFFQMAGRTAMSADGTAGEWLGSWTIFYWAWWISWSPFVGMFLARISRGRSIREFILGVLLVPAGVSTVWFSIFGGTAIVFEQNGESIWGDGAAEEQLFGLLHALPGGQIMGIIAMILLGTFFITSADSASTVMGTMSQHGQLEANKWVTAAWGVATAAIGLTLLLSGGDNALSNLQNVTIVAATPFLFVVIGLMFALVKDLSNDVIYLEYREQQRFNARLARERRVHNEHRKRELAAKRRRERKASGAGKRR
Assay: […]-betaine uptake into proteoliposomes
Format: biochemical
Details: labelled compound; 50 uM betaine, 25 mM NaCl, pH 7.5, 0.6 osmol/kg, valinomycin

## C[N+](C)(C)CC(=O)[O-] [betaine]
  [14C]-betaine uptake into proteoliposomes: the activity of G450R5/S516R5 is only slightly decreased compared to the wildtype
